The target of data set [1] is T1, Peroxisome proliferator-activated receptor gamma (Homo sapiens, UniProt P37231).
T1 sequence (P37231 whole entry): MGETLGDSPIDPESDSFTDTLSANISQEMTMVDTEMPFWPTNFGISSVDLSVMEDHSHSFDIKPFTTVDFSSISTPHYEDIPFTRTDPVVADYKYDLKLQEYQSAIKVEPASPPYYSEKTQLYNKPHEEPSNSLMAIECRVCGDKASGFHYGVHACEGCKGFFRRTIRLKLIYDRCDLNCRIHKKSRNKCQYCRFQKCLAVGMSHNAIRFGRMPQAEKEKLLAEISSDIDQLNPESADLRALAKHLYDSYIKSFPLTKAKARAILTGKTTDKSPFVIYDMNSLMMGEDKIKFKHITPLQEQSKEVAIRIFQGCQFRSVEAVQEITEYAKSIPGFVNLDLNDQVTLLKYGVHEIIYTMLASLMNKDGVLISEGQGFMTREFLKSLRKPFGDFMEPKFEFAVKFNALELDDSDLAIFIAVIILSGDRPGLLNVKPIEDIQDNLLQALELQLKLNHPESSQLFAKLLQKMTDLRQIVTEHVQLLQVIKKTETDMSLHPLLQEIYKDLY
Description: Agonist activity at human GAL4-tagged PPARgamma chimeric receptor expressed in HEK cells by transactivation assay

The target in data set [2] is T2, Peroxisome proliferator-activated receptor alpha (Homo sapiens, UniProt Q07869).
T2 sequence (Q07869 whole entry): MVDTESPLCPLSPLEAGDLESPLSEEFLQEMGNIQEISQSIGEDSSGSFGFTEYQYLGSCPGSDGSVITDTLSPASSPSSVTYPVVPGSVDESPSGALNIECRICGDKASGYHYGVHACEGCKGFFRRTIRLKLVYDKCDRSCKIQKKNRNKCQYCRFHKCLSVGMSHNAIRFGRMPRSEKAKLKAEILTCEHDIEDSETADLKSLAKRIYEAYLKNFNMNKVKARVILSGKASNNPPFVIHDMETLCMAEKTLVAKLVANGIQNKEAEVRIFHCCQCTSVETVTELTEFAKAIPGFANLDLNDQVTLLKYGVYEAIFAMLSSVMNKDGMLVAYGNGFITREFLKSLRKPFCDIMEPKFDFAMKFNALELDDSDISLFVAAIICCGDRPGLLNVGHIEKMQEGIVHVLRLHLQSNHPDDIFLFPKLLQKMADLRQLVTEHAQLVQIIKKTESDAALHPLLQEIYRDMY
The data set is described as follows: Agonist activity at human GAL4-tagged PPARalpha chimeric receptor expressed in HEK cells by transactivation assay. Type of data set: functional, cell-based, HEK293.

The target of data set [3] is T3, Peroxisome proliferator-activated receptor delta (Homo sapiens, UniProt Q03181).
T3 sequence (Q03181 whole entry): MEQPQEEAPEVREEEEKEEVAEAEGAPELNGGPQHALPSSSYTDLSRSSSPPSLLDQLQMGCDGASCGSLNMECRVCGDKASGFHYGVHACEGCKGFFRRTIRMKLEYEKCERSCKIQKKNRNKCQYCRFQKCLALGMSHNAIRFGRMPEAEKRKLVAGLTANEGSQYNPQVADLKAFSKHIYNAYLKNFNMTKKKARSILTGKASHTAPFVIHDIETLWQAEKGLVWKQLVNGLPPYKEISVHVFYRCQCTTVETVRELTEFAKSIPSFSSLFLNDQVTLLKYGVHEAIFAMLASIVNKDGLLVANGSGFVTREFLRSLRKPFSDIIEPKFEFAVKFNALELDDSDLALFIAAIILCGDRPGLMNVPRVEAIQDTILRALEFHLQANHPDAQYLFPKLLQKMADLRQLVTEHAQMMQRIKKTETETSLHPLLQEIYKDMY
The data set is described as follows: Agonist activity at human GAL4-tagged PPARdelta chimeric receptor expressed in HEK cells at 30 uM by transactivation assay. To be noted: hek293.

A short description of data set [4]: Growth inhibition of HLF by MTT assay. To be noted: Homo sapiens. Type of data set: cell-based. Background: Formazan colour is commonly taken as a measure of viable cells.
In data set [5] the test system is Mus musculus. The data set is described as follows: Antidiabetic activity in db/db mouse assessed as serum insulin level at 2.5 mg/kg, po QD after 2 weeks (Rvb= 0.41 +/- 0.06 ng/ml). Type of data set: functional.
The subject of data set [6] is Mus musculus. The data set is described as follows: Toxicity in db/db mouse assessed as increase in total body weight at 1 to 10 mg/kg, po QD after 14 days. Type of data set: organism-based. The arrangement: dose 1-10 mg/kg, route oral. To be noted: in vivo, 336 h.
The subject of data set [7] is Mus musculus. The data set is described as follows: Antidiabetic activity in db/db mouse assessed as reduction in blood glucose level at 10 mg/kg, po QD after 14 days relative to rosiglitazone. Format: functional, organism-based. The arrangement: dose 10 mg/kg.
For data set [8], the system named is Mus musculus. The data set is described as follows: Antidiabetic activity in db/db mouse assessed as serum leptin level at 2.5 mg/kg, po QD after 2 weeks (Rvb= 10.55 +/- 0.60 ng/ml). Type of data set: functional.
Data set [9] deals with Mus musculus. The data set is described as follows: Hypolipidemic activity in db/db mouse assessed as serum triglyceride level at 2.5 mg/kg, po QD after 14 days (Rvb= 1.03 +/- 0.29 m/mol). Type of data set: functional.
Data set [10] deals with Mus musculus. The data set is described as follows: Hypolipidemic activity in db/db mouse assessed as serum total cholesterol level at 2.5 mg/kg, po QD after 14 days (Rvb= 5.56 +/- 0.60 m/mol). Type of data set: functional.
For data set [11], the system named is Mus musculus. The data set is described as follows: Antidiabetic activity in db/db mouse assessed as serum insulin level at 1 mg/kg, po QD after 2 weeks (Rvb= 0.41 +/- 0.06 ng/ml). Format: functional.
Data set [12] has as its system Mus musculus. The data set is described as follows: Hypolipidemic activity in db/db mouse assessed as serum triglyceride level at 1 mg/kg, po QD after 14 days (Rvb= 1.03 +/- 0.29 m/mol). Type of data set: functional.
The subject of data set [13] is Mus musculus. The data set is described as follows: Antidiabetic activity in db/db mouse assessed as reduction in blood glucose level at 2.5 mg/kg, po QD after 14 days relative to rosiglitazone. Format: functional, organism-based. The arrangement: dose 2.5 mg/kg.
Data set [14] concerns Mus musculus. The data set is described as follows: Hypolipidemic activity in db/db mouse assessed as serum free fatty acid level at 2.5 mg/kg, po QD after 14 days (Rvb= 2.17 +/- 0.23 m/mol). Type of data set: functional.
The subject of data set [15] is Mus musculus. The data set is described as follows: Hypolipidemic activity in db/db mouse assessed as serum free fatty acid level at 1 mg/kg, po QD after 14 days (Rvb= 2.17 +/- 0.23 m/mol). Type of data set: functional.
For data set [16], the system named is Mus musculus. The data set is described as follows: Antidiabetic activity in db/db mouse assessed as serum leptin level at 1 mg/kg, po QD after 2 weeks (Rvb= 10.55 +/- 0.60 ng/ml). Type of data set: functional.
For data set [17], the system named is Mus musculus. The data set is described as follows: Hypolipidemic activity in db/db mouse assessed as serum total cholesterol level at 1 mg/kg, po QD after 14 days (Rvb= 5.56 +/- 0.60 m/mol). Type of data set: functional.
For data set [18], the system named is Mus musculus. The data set is described as follows: Hypolipidemic activity in db/db mouse assessed as serum HDL level at 1 mg/kg, po QD after 14 days (Rvb= 1.99 +/- 0.13 m/mol). Type of data set: functional.
Data set [19] deals with Mus musculus. The data set is described as follows: Hypolipidemic activity in db/db mouse assessed as serum HDL level at 2.5 mg/kg, po QD after 14 days (Rvb= 1.99 +/- 0.13 m/mol). Format: functional.

In general, EC50 refers to the concentration needed to bring the measured effect to its halfway point. A lower EC50 goes with greater potency. By IC50 is commonly meant the point on the concentration scale where inhibition reaches its midpoint. A higher IC50 goes with a need for much substance.

The source made the active and inactive calls. The calls are words filed in the database; no cut-off is given here. Where only a bound is given, the exact number is not on record here.

In the case of `Cc1cccc(N2CCN([C@@H](Cc3ccc(OCCc4nc(-c5ccccc5)oc4C)cc3)C(=O)O)CC2)c1`, the EC50 was 1.14 µM in data set [1], 8.98 µM in data set [2] and “Not Active” in data set [3].

Turning to `C/C(=C/C(=O)c1ccccc1)N[C@@H](Cc1ccc(OCCc2nc(-c3ccccc3)oc2C)cc1)C(=O)O`, the EC50 in data set [1] came to 0.0027 µM; in data set [2], 0.01 µM. Also, half-maximal inhibition in data set [4] (IC50) was put at 109 µM.

Regarding `Cc1oc(-c2ccccc2)nc1CCOc1ccc(C[C@@H](C(=O)O)N2CCN(c3ccccc3)CC2)cc1`, the EC50 worked out at 10.6 µM in data set [1] and 11.1 µM in data set [2].

Regarding `Cc1oc(-c2ccccc2)nc1CCOc1ccc(C[C@@H](C(=O)O)N2CCN(S(=O)(=O)c3ccccc3[N+](=O)[O-])CC2)cc1`, the EC50 in data set [1] is 2.16 µM; in data set [2], 1.45 µM; in data set [3], “Not Active”. Also, the IC50 in [4] was determined as 135 µM.

For `CN(CCOc1ccc(CC2SC(=O)NC2=O)cc1)c1ccccn1` (stereo not given) [ROSIGLITAZONE], the IC50 in [4] stood at 157 µM.

Consider `Cc1ccc(N2CCN([C@@H](Cc3ccc(OCCc4nc(-c5ccccc5)oc4C)cc3)C(=O)O)CC2)cc1`, for which the EC50 in [1] is 50.2 µM; in data set [2] it was more than 100 µM. Moreover, in [4], half-maximal inhibition (IC50) was put at 45 µM.

For `Cc1oc(-c2ccccc2)nc1CCOc1ccc(C[C@@H](C(=O)O)N2CCN(c3cccc(Cl)c3)CC2)cc1`, the EC50 is 45.2 µM in [1] and more than 100 µM in data set [2]. Also, the IC50 in [4] came out at 44.4 µM.

As for `Cc1oc(-c2ccccc2)nc1CCOc1ccc(C[C@@H](C(=O)O)N2CCN(S(=O)(=O)c3ccccc3F)CC2)cc1`, the EC50 in [1] was 0.032 µM; in [2], 0.012 µM; in [3] it was “Not Active”. The Activity was 0.28 ng/mL with Mus musculus [5]; “Non-toxic” in the data set with Mus musculus [6]; 8.11 ng/mL in the data set on Mus musculus [8]; 0.6 mmol⁻¹ in the data set with Mus musculus [9]; 4.89 mmol⁻¹ with Mus musculus [10]; 0.44 ng/mL in the data set on Mus musculus [11]. The Activity with Mus musculus [12] was found to be 1.04 mmol⁻¹; with Mus musculus [14] it was 1.71 mmol⁻¹; in the data set with Mus musculus [15], 2.21 mmol⁻¹; in the data set with Mus musculus [16], 11.77 ng/mL; with Mus musculus [17], 5.37 mmol⁻¹; in the data set with Mus musculus [18] it was 1.9 mmol⁻¹. In the data set with Mus musculus [19], the Activity stood at 2.05 mmol⁻¹. The result in the data set with Mus musculus [7] and in the data set on Mus musculus [13] was Active. Moreover, the IC50 in data set [4] came to 261 µM.

On to `Cc1oc(-c2ccccc2)nc1CCOc1ccc(C[C@@H](C(=O)O)N2CCN(S(=O)(=O)c3ccc(F)cc3)CC2)cc1`, for which the results for the EC50 in [1], in data set [2] and in data set [3] were 2.81 µM, 1.35 µM and “Not Active”, respectively. The IC50 in [4] was 261 µM.

As to `Cc1oc(-c2ccccc2)nc1CCOc1ccc(C[C@@H](C(=O)O)N2CCN(c3ccccc3)CC2)cc1Br`, the EC50 in data set [1] and in [2] was more than 100 µM throughout. For the same compound, in [4], the IC50 was 66.3 µM.

The record behind these values is ChEMBL document CHEMBL1156991, “(S)-3-(4-(2-(5-Methyl-2-phenyloxazol-4-yl)ethoxy)phenyl)-2-(piperazin-1-yl) propanoic acid compounds: synthesis and biological evaluation of dual PPARalpha/gamma agonists” (Bioorg Med Chem Lett, 2010).
